In this assay the target is T1, human GPR119 (hGPR119) (Homo sapiens, UniProt Q8TDV5).
T1 construct: expressed in transfected cells
T1 sequence (Q8TDV5 1-335): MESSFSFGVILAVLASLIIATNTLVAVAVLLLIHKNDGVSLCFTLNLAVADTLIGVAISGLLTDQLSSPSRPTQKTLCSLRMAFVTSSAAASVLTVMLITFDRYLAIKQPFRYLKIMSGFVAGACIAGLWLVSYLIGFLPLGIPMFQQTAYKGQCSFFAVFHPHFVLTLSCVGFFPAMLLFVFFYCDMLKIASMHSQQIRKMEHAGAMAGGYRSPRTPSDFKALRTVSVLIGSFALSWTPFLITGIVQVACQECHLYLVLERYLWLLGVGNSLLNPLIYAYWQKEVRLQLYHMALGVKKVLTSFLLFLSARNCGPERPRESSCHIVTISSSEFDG
The experiment in a line: cAMP accumulation assay (cAMP Gs dynamic HTRF kit). Type of assay: cell-based. The following applies: CHO-K1 cells stably expressing hGPR119, 4-parameter fit; for Emax: 1 h, % activity normalized to Max/Min controls; for EC50: cAMP accumulation. As to the method:
CHO-K1 cells stably expressing human GPR119 (hGPR119) were prepared by transfection of a GPR119-carrying plasmid using Lipofectamine 2000 (following manufacturer instructions). A stable cell line was established using the limiting dilution method with geneticine selection. Assay-ready frozen (ARF) cells were prepared and used throughout the study.
The assay was performed in a 384-well plate format using the cAMP Gs dynamic assay kit from Cisbio. ARF cells expressing hGPR119 were thawed, washed and then resuspended in cAMP stimulation buffer at a cell density of 1.1×10^6 cells/mL. Cells were plated at a density of ˜10,000 cells/well (9 μL/well). Dose response curves for the tested compounds were prepared in a cAMP stimulation buffer, containing 0.1% Tween 80 at 4 fold the final concentration. The compounds were then transferred to the cell plates using BRAVO (3 μL/well) and the plates were incubated for 60 minutes at 37° C./5% CO2. Detection buffer (10 μL, prepared as described in the cAMP Gs dynamic kit) were added to each well, and the plates were incubated at ambient temperature for 1 hr.
RT-FRET was measured using a ClarioSTAR plate reader, calculating the ratio between emissions at 665 nm and 620 nm (HTRF ratio). The HTRF ratio for positive (Max) and negative (Min) controls were used to normalize HTRF data and generate values for % activity. EC50 and Max activity values were determined using a standard 4-parameter fit.
Background: Changes in cAMP serve as a functional read-out for many G protein-coupled receptors.

Bounds are passed on as bounds.

On to `O=C(Cc1ccc(OCCCC2CCN(c3ncc(Cl)cn3)CC2)cc1F)N1CC(CCNC(CO)CO)C1` [Example 56, 2-(4-(3-(1-(5-chloropyrimidin-2-yl)piperidin-4-yl)propoxy)-2-fluorophenyl)-1-(3-(2-((1,3-dihydroxypropan-2-yl)amino)ethyl)azetidin-1-yl)ethan-1-one], for which the maximal effect (Emax) (usually the maximal effect, on the per cent scale that the assay sets) is 100 to 130% and the EC50 (in general, the concentration that produces a half-maximal response) is at most 100 nM.
For `CCCc1cnc(N2CCC(CCCOc3cc(F)c(CC(=O)N4CC(CNC(CO)(CO)CO)C4)c(F)c3)CC2)nc1` [Example 76, 2-(2,6-difluoro-4-(3-(1-(5-propylpyrimidin-2-yl)piperidin-4-yl)propoxy)phenyl)-1-(3-(((1,3-dihydroxy-2-(hydroxymethyl)propan-2-yl)amino)methyl)azetidin-1-yl)ethan-1-one], in that order: at least 130% and at most 100 nM.
For `O=C(Cc1ccc(OCCCCC2CC3(CCN(c4ncc(Cl)cn4)CC3)C2)cc1F)N1CC(CNC[C@H](O)[C@@H](O)[C@H](O)[C@H](O)CO)C1` [Example 106, 2-[4-[4-[7-(5-chloropyrimidin-2-yl)-7-azaspiro[3.5]nonan-2-yl]butoxy]-2-fluoro-phenyl]-1-[3-[[[(2S,3R,4R,5R)-2,3,4,5,6-pentahydroxyhexyl]amino]methyl]azetidin-1-yl]ethanone], in that order: 100 to 130% and 100 to 1000 nM.
The matching figures for `COCc1cnc(N2CCC(CCCCOc3ccc(CC(=O)N4CC(CNC[C@H](O)[C@@H](O)[C@H](O)[C@H](O)CO)C4)c(F)c3)CC2)nc1` (racemic) [Example 84, 2-[2-fluoro-4-[4-[1-[5-(methoxymethyl)pyrimidin-2-yl]-4-piperidyl]butoxy]phenyl]-1-[3-[[[rac-(2S,3R,4R,5R)-2,3,4,5,6-pentahydroxyhexyl]amino]methyl]azetidin-1-yl]ethanone]: 100 to 130% and 100 to 1000 nM.
`COCc1cnc(N2CCC(CCCCOc3cc(F)c(CC(=O)N4CC(CNC[C@H](O)[C@@H](O)[C@H](O)[C@H](O)CO)C4)c(F)c3)CC2)nc1` (racemic) [Example 85, 2-[2,6-difluoro-4-[4-[1-[5-(methoxymethyl)pyrimidin-2-yl]-4-piperidyl]butoxy]phenyl]-1-[3-[[[rac-(2S,3R,4R,5R)-2,3,4,5,6-pentahydroxyhexyl]amino]methyl]azetidin-1-yl]ethanone] displayed an Emax of 100 to 130% and a concentration giving a half-maximal response (EC50) of 100 to 1000 nM.
The matching figures for `O=C(NC(CO)(CO)CO)C1CN(C(=O)Cc2c(F)cc(OCCCC3CCN(c4ncc(Cl)cn4)CC3)cc2F)C1` [Example 26, 1-[2-[4-[3-[1-(5-chloropyrimidin-2-yl)-4-piperidyl]propoxy]-2,6-difluoro-phenyl]acetyl]-N-[2-hydroxy-1,1-bis(hydroxymethyl)ethyl]azetidine-3-carboxamide]: at least 130% and at most 100 nM.
For `O=C(Cc1ccc(OCCCC2CCN(c3ncc(Cl)cn3)CC2)cc1F)N1CC(CN2C[C@@H](O)[C@@H](O)[C@@H](O)C2)C1` [Example 50, 2-[4-[3-[1-(5-chloropyrimidin-2-yl)-4-piperidyl]propoxy]-2-fluoro-phenyl]-1-[3-[[rac-(3R,5S)-3,4,5-trihydroxy-1-piperidyl]methyl]azetidin-1-yl]ethanone], in that order: 100 to 130% and at most 100 nM.
The matching figures for `O=C(NCC(O)(CO)CO)C1CN(C(=O)Cc2ccc(OCCCC3CCN(c4ncc(Cl)cn4)CC3)cc2F)C1` [Example 30, 1-[2-[4-[3-[1-(5-chloropyrimidin-2-yl)-4-piperidyl]propoxy]-2-fluoro-phenyl]acetyl]-N-[2,3-dihydroxy-2-(hydroxymethyl)propyl]azetidine-3-carboxamide]: 100 to 130% and at most 100 nM.
With `O=C(Cc1ccc(OCCCC2CCN(c3ncc(Cl)cn3)CC2)cc1F)NCCCCS(=O)(=O)O` [Example 12, 4-[[2-[4-[3-[1-(5-chloropyrimidin-2-yl)-4-piperidyl]propoxy]-2-fluoro-phenyl]acetyl]amino]butane-1-sulfonic acid], the maximal response (Emax) was at least 130% and the EC50 was 1000 to 10000 nM.
The matching figures for `O=C(Cc1ccc(OCCCC2CCN(c3ncc(Cl)cn3)CC2)cc1F)NCCC(=O)NC(CO)CO` [Example 19, 3-[[2-[4-[3-[1-(5-chloropyrimidin-2-yl)-4-piperidyl]propoxy]-2-fluoro-phenyl]acetyl]amino]-N-[2-hydroxy-1-(hydroxymethyl)ethyl]propanamide]: 100 to 130% and 100 to 1000 nM.
`O=C(Cc1ncc(OCCCC2CCN(c3ncc(Cl)cn3)CC2)cc1F)N1CC(CNC[C@H](O)[C@@H](O)[C@H](O)[C@H](O)CO)C1` [Example 170, 2-[5-[3-[1-(5-chloropyrimidin-2-yl)-4-piperidyl]propoxy]-3-fluoro-2-pyridyl]-1-[3-[[[(2S,3R,4R,5R)-2,3,4,5,6-pentahydroxyhexyl]amino]methyl]azetidin-1-yl]ethanone]: the Emax was 100 to 130% and the EC50 is 100 to 1000 nM.
For `O=C(NCC(O)(CO)CO)C1CCN(C(=O)Cc2ccc(OCCCC3CCN(c4ncc(Cl)cn4)CC3)cc2F)CC1` [Example 41, 1-[2-[4-[3-[1-(5-chloropyrimidin-2-yl)-4-piperidyl]propoxy]-2-fluoro-phenyl]acetyl]-N-[2,3-dihydroxy-2-(hydroxymethyl)propyl]piperidine-4-carboxamide], in that order: 100 to 130% and 100 to 1000 nM.
For `CCCc1cnc(N2CCC(CCCOc3ccc(CC(=O)N4CC(CNCC(O)(CO)CO)C4)c(F)c3)CC2)nc1` [Example 71, 1-(3-(((2,3-dihydroxy-2-(hydroxymethyl)propyl)amino)methyl)azetidin-1-yl)-2-(2-fluoro-4-(3-(1-(5-propylpyrimidin-2-yl)piperidin-4-yl)propoxy)phenyl)ethan-1-one], the Emax is 100 to 130% and the half-maximal effective concentration (EC50) was at most 100 nM.
On to `O=C(CC1CN(C(=O)Cc2ccc(OCCCC3CCN(c4ncc(Cl)cn4)CC3)cc2F)C1)NCCS(=O)(=O)O` [Example 176, 2-[[2-[1-[2-[4-[3-[1-(5-chloropyrimidin-2-yl)-4-piperidyl]propoxy]-2-fluoro-phenyl]acetyl]azetidin-3-yl]acetyl]amino]ethanesulfonic acid], for which the Emax was in the range of 100 to 130% and the 50% effective concentration (EC50) is 100 to 1000 nM.
The matching figures for `COCc1cnc(N2CCC([C@H]3C[C@H]3CCOc3ccc(CC(=O)N4CC[C@@H](CNCC(O)(CO)CO)C4)c(F)c3)CC2)nc1` [Example 162, 2-[2-fluoro-4-[2-[(1S,2R)-2-[1-[5-(methoxymethyl)pyrimidin-2-yl]-4-piperidyl]cyclopropyl]ethoxy]phenyl]-1-[(3S)-3-[[[2,3-dihydroxy-2-(hydroxymethyl)propyl]amino]methyl]pyrrolidin-1-yl]ethanone]: 100 to 130% and at most 100 nM.
Turning to `NS(=O)(=O)CCCNC(=O)Cc1ccc(OCCCC2CCN(c3ncc(Cl)cn3)CC2)cc1F` [Example 13, 2-[4-[3-[1-(5-chloropyrimidin-2-yl)-4-piperidyl]propoxy]-2-fluoro-phenyl]-N-(3-sulfamoylpropyl)acetamide], the Emax is at least 130% and the concentration for a half-maximal effect (EC50) was at most 100 nM.
The matching figures for `O=C(Cc1ccc(OCCCC2CCN(c3ncc(Cl)cn3)CC2)cc1F)N1CC(CNC[C@H](O)[C@H](O)[C@H](O)CO)C1` [Example 165, 2-[4-[3-[1-(5-chloropyrimidin-2-yl)-4-piperidyl]propoxy]-2-fluoro-phenyl]-1-[3-[[[(2S,3S,4R)-2,3,4,5-tetrahydroxypentyl]amino]methyl]azetidin-1-yl]ethanone]: 100 to 130% and at most 100 nM.
As to `O=C(Cc1ccc(OCCCC2CCN(C(=O)OC3(C(F)(F)F)COC3)CC2)cc1F)N1CC(CNC[C@H](O)[C@@H](O)[C@H](O)[C@H](O)CO)C1` [Example 125, [3-(trifluoromethyl)oxetan-3-yl] 4-[3-[3-fluoro-4-[2-oxo-2-[3-[[[(2S,3R,4R,5R)-2,3,4,5,6-pentahydroxyhexyl]amino]methyl]azetidin-1-yl]ethyl]phenoxy]propyl]piperidine-1-carboxylate], the Emax is 100 to 130% and the EC50 lay in the range of 100 to 1000 nM.
Consider `CCc1cnc(N2CCC(CCCOc3ccc(CC(=O)N4CC(CNCCNC(=O)NC(CO)(CO)CO)C4)c(F)c3)CC2)nc1` [Example 65, 1-(1,3-dihydroxy-2-(hydroxymethyl)propan-2-yl)-3-(2-(((1-(2-(4-(3-(1-(5-ethylpyrimidin-2-yl)piperidin-4-yl)propoxy)-2-fluorophenyl)acetyl)azetidin-3-yl)methyl)amino)ethyl)urea], for which the maximum response (Emax) was in the range of 100 to 130% and the EC50 is at most 100 nM.

These data come from patent US20230061736A1, “GPR119 AGONISTS” (Kallyope, Inc., priority 2019, published 2023).
